According to patent publication US8119657B2, “Enantiomeric compositions of 2-amino-1-(2-isopropylpyrazolo[1,5-α]pyridin-3-yl)propan-1-one and related methods” (MediciNova, Inc., priority 2009, dated 2012):
“Also recorded” adds a separate entry of the source. Read-outs that look alike come from different tables or passages of the source.

Columns and labels:
Rolipram binding site = experiment: Inhibition of binding at the Rolipram binding site; conditions: 10 uM
[1] = In vivo interconversion of enantiomers in rats dosed with enantiomerically pure (S)-AV1013; parameters: species or system rat; conditions: rats dosed with (S)-AV1013 of 99% enantiomeric excess, LLOQ=5 ng/mL
[2] = Dog pharmacokinetics of the enantiomers after oral dosing of racemic AV1013; format: in vivo; conditions: for Cmax: po
Description: Three male beagle dogs were dosed orally with 10 mg/kg racemic AV1013 via gavage. AV1013 was dissolved in water at 5 mg/ml and dosed via gavage at a volume of 2 ml/kg. Blood samples were collected via the jugular vein at 5, 15 and 30 minutes, 1, 2, 4, 6, 8, and 24 hours post dosing.
A sensitive and specific chiral HPLC/MS/MS bioanalytical method for the detection of (S)-AV1013 and (R)-AV1013 enantiomers in rat and dog plasma was utilized. AV1013 enantiomers and the internal standard (AV1040, an analog of AV1013) were isolated from plasma by protein precipitation induced by acetonitrile. After centrifugation to sediment the proteins, the supernatant fractions were analyzed by high performance liquid chromatography (LC) in conjunction with a triple quadrupole mass spectrometer that used electrospray ionization in tandem with positive ionization (MS/MS) according to the conditions below. The LLOQ (lower level of quantitation) was typically <3 ng/mL.
Analysis of pharmacokinetic parameters was performed for each enantiomer via LC/MS bioanalytics and WinNonlin™ analysis (version 4.0.1; Pharsight Corp., Mountain View, Calif.), commercial software designed for the analysis of PK data. The PK modeling was based on a non-compartmental model with gradual input into the central compartment. Computation of the area under the curve (AUC) was based on the sum of trapezoidal areas for the plotted plasma concentration-time data. AUC and associated parameters were estimated by log-linear regression analysis of the terminal phase.

[3] = target: T1, rhMIF (recombinant human Macrophage migration Inhibitory Factor) (Homo sapiens, UniProt P14174); experiment: MIF-induced migration of human peripheral blood monocytes (PBMCs); format: cell-based; conditions: rhMIF 90 nM, dilution series of inhibitor
T1 sequence (P14174 2-115 limits assumed): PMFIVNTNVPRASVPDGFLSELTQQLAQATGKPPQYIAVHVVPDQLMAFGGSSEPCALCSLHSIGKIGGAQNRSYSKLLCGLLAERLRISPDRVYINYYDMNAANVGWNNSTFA
Description: The chemo attractant activities of rhMIF (recombinant human Macrophage migration Inhibitory Factor) and the effect of inhibitors were measured using human peripheral blood monocytes (PBMCs) isolated from whole blood by centrifugation on Histopaque-1077 (Sigma). The cells were washed in RPMI-1640, diluted to 1×10^6 cells/ml and analyzed immediately. These assays were carried out in 24 well tissue culture plates utilizing 8.0 μm cell culture inserts (Falcon). Recombinant hMIF (90 nM), diluted in RPMI was placed in the cells of a 24 well plate with or without inhibitor (10-fold molar excess or dilution series) and allowed to incubate for 30 min at 37° C., 5% CO2. Washed human monocytes were added to the upper chamber of 8.0 μm cell culture inserts and allowed to incubate for 3 hrs at 37° C., 5% CO2. Cells that migrate through the membrane were fixed in methanol and stained with Geimsa, prior to cell counting using light microscopy.
Results are expressed as the mean number of cells counted per high power field for each of two replicates to obtain statistically significant data. (Legend: −Star=no human MIF, Skull=no human MIF+10 uM (S)-AV1013. See FIGS. 5A and 5B.

[4] = Chiral and chemical stability in solution and on storage; format: physicochemical; conditions: for racemization in dosing solutions and bioanalytical solutions: saline vehicle, DMSO:methanol, 1:1
Source text: Without ascribing to any particular theory, the present inventors believe that the facile separation of enantiomers using the N-protected racemate of AV1013 is probably due to the greater stability of the racemate as well as the separate enantiomers in protected form. […] Unstability also stems from the ability of the free base to self condense. Because self-condensation is promoted in concentrated solutions, it is desirable to avoid highly concentrated solutions of the free base form of optically active AV1013. Likewise, the free base form of racemic AV1013 or its hydrochloride salt are also unstable, precluding their use as precursors to obtaining (S)-AV1013 as a free base or its hydrochloride salt in high yield and/or high purity.
Thus, it is often desirable to re-purify the de-protected product using purification techniques known in the art. For example, any one or more of the methods described above for separating chiral molecules, such as, chromatography (e.g., HPLC, GC, and SFC), crystallization, fractional crystallization, and the like may be used for re-purification. An exemplary method is recrystallization. Purification by recrystallization allows separation of the desired (S)-enantiomer in high purity, such that the overall reaction sequence including isolation of the desired (S)-enantiomer requires only a single chromatographic step (i.e., the chiral separation). Recrystallization can be carried out in any of a number of single or mixed solvent systems including alcohols, ethers, esters, nitriles, halogenated hydrocarbons, amides and aqueous mixtures thereof. Suitable solvents include methanol, ethanol, propanol, iso-propanol, acetone, tetrahyrofuran, methyl ethyl ketone, methyl isobutyl ketone, ethyl acetate, amyl acetate, acetonitrile, diethyl ether, methyl tert-butyl ether, dichloromethane, dichloroethane, chloroform, dimethylformamide, and combinations thereof. Illustrative mixed solvent systems used to recrystallize (S)-AV1013 are iso-propanol/methyl tert-butyl ether and ethanol/methyl tert-butyl ether.
The five-step route provided a 15% overall yield of (S)-AV1013.HCl. The chiral separation, by SFC chromatography, is the only chromatographic step required. Hydrolysis of the N-protected (S)-AV1013, followed by recrystallization from iso-propanol/methyl tert-butyl ether provided (S)-AV1013.HCl in greater than 99% chemical purity and greater than 97% S-enantiomer (greater than 94% enantiomeric excess (ee)) by chiral HPLC, as determined from the equation ee=[|R−S^51÷(R+S)]×100 ee=[|R−S|÷(R+S)]×100. […] Even under optimal storage and handling conditions to minimize exposure to moisture, a small degree of racemization (i.e., approximately 2%) was observed. Recrystallization was effective to improve enantiomeric purity to arrive at a product having an illustrative chiral purity as described above. […] The recrystallized (S)-AV 1013.HCl contained approximately 25 mole percent alcohol (less than about 10% by weight) even when dried at 50° C. Thus, it appears that the resultant product is formed as a solvate under the recrystallization and drying conditions employed.

CC(C)c1nn2ccccc2c1C(=O)[C@H](C)N [(S)-AV1013, (S)-2-amino-1-(2-isopropylpyrazolo[1,5-a]pyridin-3-yl)propan-1-one]
inhibition of the Rolipram binding site (Rolipram binding site): 12% | plasma levels of the (R) enantiomer after dosing (S) (in vivo racemization) [1]: no detectable plasma levels of the corresponding (R) enantiomer | plasma levels of the (R) enantiomer after dosing (S) (in vivo racemization) ([1]; listed as (S)-enantiomer): does not result in detectable levels of the (R)-enantiomer | AUC of (S) relative to (R) enantiomer ([2]; dog, oral dosing of racemate): > 3 fold | Cmax of (S) relative to (R) enantiomer ([2]; dog, oral dosing of racemate): at least 2 fold | Cmax of (S) relative to (R) enantiomer ([2]; dog, oral dosing of racemate, listed as (S)-enantiomer): > 2 fold | Cmax ([2]; male, beagle, dog, plasma, 10 mg/kg, beagle dog, oral 10 mg/kg racemic AV1013, plasma, read-out: Cmax): 2630 ng/mL | Cmax ([2]; male, beagle, dog, plasma, 10 mg/kg, dog, oral dosing of racemate, rounded values, read-out: mean peak plasma levels (Cmax)): 2600 ng/mL | AUC ([2]; male, beagle, plasma, 10 mg/kg, dog, oral dosing of racemate, rounded values, read-out: calculated area under the curves (AUC)): 24200 ng·h/mL | AUC(0-t) ([2]; male, beagle dog, oral 10 mg/kg racemic AV1013, plasma): 24200 ng·h/mL | antagonism of MIF-induced cell migration [3]: antagonize MIF-induced macrophage migration in a dose-dependent fashion; also recorded: antagonize MIF-induced mononuclear cell migration in a similar dose dependent fashion | stability / racemization in solution ([4]; free base (or hydrochloride salt where stated), in solution): unstable and racemizes in solution; also recorded: racemizes slowly in solution | racemization in dosing solutions and bioanalytical solutions [4]: no detectable interconversion between the enantiomers | racemization in dosing solutions and bioanalytical solutions ([4]; listed as (S)-enantiomer): no racemization has been documented
